Numbered stars: 1 amine (or outer) side, 2 acyl side, 3 side chain; on linkers, the order of the positions; unused ones are H or OH. Square brackets hold non-standard residues; d marks the D form. Peptide text beside a SMILES is read from it. * marks the point of attachment. Doxorubicin(3'-N) = COc1cccc2c1C(=O)c1c(O)c3c(c(O)c1C2=O)C[C@@](O)(C(=O)CO)C[C@@H]3O[C@H]1C[C@H](N*)[C@H](O)[C@H](C)O1; X1 = O=P1(N(CCCl)CCCl)N[C@@H](N*)CCO1; Glutaryl = O=C(CCCC(=O)[*:2])[*:1]; Hyp = O=C(O)[C@@H]1C[C@@H](O)CN1; Chg = N[C@H](C(=O)O)C1CCCCC1; Suc = O=C(CCC(=O)[*:2])[*:1]
Assays:
[1] = biological target: T1, Prostate-specific antigen (Homo sapiens, UniProt P07288); experiment: Prodrug activation assessed as PSA (unknown origin)-mediated digestion assessed as glutaryl-Hyp-Ala-Ser-Chg-Gln-OH level by LC-MS analysis
T1 sequence (P07288 whole entry): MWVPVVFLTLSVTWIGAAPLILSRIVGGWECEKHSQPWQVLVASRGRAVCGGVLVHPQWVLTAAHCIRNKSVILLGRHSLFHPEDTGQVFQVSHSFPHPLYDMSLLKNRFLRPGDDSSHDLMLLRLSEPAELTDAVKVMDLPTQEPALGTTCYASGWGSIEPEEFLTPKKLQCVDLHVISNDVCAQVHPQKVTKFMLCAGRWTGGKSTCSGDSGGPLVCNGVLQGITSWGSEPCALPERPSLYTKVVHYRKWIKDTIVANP

[2] = biological target: T2, Prostate-specific antigen (PSA) (Homo sapiens, UniProt P07288); experiment: Drug metabolism assessed as PSA (unknown origin)-mediated digestion assessed as compound remaining after 4 hrs by HPLC analysis; format: ADME; details: PSA (prostate-specific antigen) enzyme, read-out: Drug metabolism
T2 sequence (P07288 whole entry): T1 sequence (P07288 whole entry)

[3] = biological target: T1, Prostate-specific antigen; experiment: Prodrug activation assessed as PSA (unknown origin)-mediated digestion assessed as half life at 1/100 enzyme-compound molar ratio by HPLC analysis
[4] = biological target: T2, Prostate-specific antigen (PSA); experiment: Drug metabolism assessed as PSA (unknown origin)-mediated digestion assessed as compound remaining after 50 hrs by HPLC analysis; format: ADME; details: PSA (prostate-specific antigen) enzyme, read-out: Drug metabolism

SMILES: C[C@H](NC(=O)[C@@H]1C[C@@H](O)CN1C(=O)CCCC(=O)O)C(=O)N[C@@H](CO)C(=O)N[C@H](C(=O)N[C@@H](CCC(N)=O)C(=O)N[C@H]1CCOP(=O)(N(CCCl)CCCl)N1)C1CCCCC1 (some centres not stated) (Glutaryl-[Hyp]AS[Chg]Q-X1)
- Drug metabolism [1]: Active
- remaining at 4 h [2]: < 10%
- t1/2 [3]: 0.917 h

SMILES: CC(C)C[C@H](NC(=O)[C@H](CCCCN)NC(=O)[C@H](CO)NC(=O)[C@H](CO)NC(=O)[C@H](Cc1cnc[nH]1)NC(=O)CCC(=O)O)C(=O)N[C@@H](CCC(N)=O)C(=O)N[C@H]1CCOP(=O)(N(CCCl)CCCl)N1 (some centres not stated) (Suc-HSSKLQ-X1)
- t1/2 [3]: 6.5 h

SMILES: CC(C)C[C@H](NC(=O)[C@H](CCCCN)NC(=O)[C@H](CO)NC(=O)CCC(=O)O)C(=O)N[C@@H](CCC(N)=O)C(=O)N[C@H]1CCOP(=O)(N(CCCl)CCCl)N1 (some centres not stated) (Suc-SKLQ-X1)
- remaining at 50 h [4]: < 10%
- t1/2 [3]: 12 h

SMILES: COc1cccc2c1C(=O)c1c(O)c3c(c(O)c1C2=O)C[C@@](O)(C(=O)CO)C[C@@H]3O[C@H]1C[C@H](NC(=O)[C@H](CC(C)C)NC(=O)[C@H](CO)NC(=O)[C@H](CCC(N)=O)NC(=O)[C@@H](NC(=O)[C@H](CO)NC(=O)[C@H](C)NC(=O)[C@@H]2C[C@@H](O)CN2C(=O)CCCC(=O)O)C2CCCCC2)[C@H](O)[C@H](C)O1 [L-377202] (Glutaryl-[Hyp]AS[Chg]QSL-{Doxorubicin(3'-N)})
- t1/2 [3]: 0.5 h

Reference: ChEMBL document CHEMBL3091437, “Peptide conjugates of 4-aminocyclophosphamide as prodrugs of phosphoramide mustard for selective activation by prostate-specific antigen (PSA)” (Bioorg Med Chem, 2013)
